#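 GI50: concentration for 50% inhibition of growth. TGI is the concentration that stops growth completely.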
# Tests used:
# Test in all cases: NCI-60 cell line screen, 384-well format
# [1] = tested on: 786-0 renal
# [2] = tested on: A498 renal
# [3] = tested on: A549 NSCLC
# [4] = tested on: ACHN renal
# [5] = tested on: BT-549 breast
# [6] = tested on: CAKI-1 renal
# [7] = tested on: CCRF-CEM leukemia
# [8] = tested on: COLO 205 colon
# [9] = tested on: DU-145 prostate
# [10] = tested on: EKVX NSCLC
# [11] = tested on: HCC-2998 colon
# [12] = tested on: HCT-116 colon
# [13] = tested on: HCT-15 colon
# [14] = tested on: HL-60(TB) leukemia
# [15] = tested on: HOP-62 NSCLC
# [16] = tested on: HOP-92 NSCLC
# [17] = tested on: HS 578T breast
# [18] = tested on: HT29 colon
# [19] = tested on: IGROV1 ovarian
# [20] = tested on: K-562 leukemia
# [21] = tested on: KM12 colon
# [22] = tested on: M14 melanoma
# [23] = tested on: MALME-3M melanoma
# [24] = tested on: MCF7 breast
# [25] = tested on: MDA-MB-231 breast
# [26] = tested on: MDA-MB-435 melanoma
# [27] = tested on: MDA-MB-468 breast
# [28] = tested on: MOLT-4 leukemia
# [29] = tested on: NCI-H226 lung
# [30] = tested on: NCI-H23 lung
# [31] = tested on: NCI-H322M lung
# [32] = tested on: NCI-H460 NSCLC
# [33] = tested on: NCI-H522 lung
# [34] = tested on: NCI/ADR-RES ovarian
# [35] = tested on: OVCAR-3 ovarian
# [36] = tested on: OVCAR-4 ovarian
# [37] = tested on: OVCAR-5 ovarian
# [38] = tested on: OVCAR-8 ovarian
# [39] = tested on: PC-3 prostate
# [40] = tested on: RPMI-8226 leukemia
# [41] = tested on: RXF 393 renal
# [42] = tested on: SF-268 CNS
# [43] = tested on: SF-295 CNS
# [44] = tested on: SF-539 CNS
# [45] = tested on: SK-MEL-2 melanoma
# [46] = tested on: SK-MEL-28 melanoma
# [47] = tested on: SK-MEL-5 melanoma
# [48] = tested on: SK-OV-3 ovarian
# [49] = tested on: SN12C renal
# [50] = tested on: SNB-19 CNS
# [51] = tested on: SNB-75 CNS
# [52] = tested on: SR leukemia
# [53] = tested on: SW-620 colon
# [54] = tested on: T-47D breast
# [55] = tested on: TK-10 renal
# [56] = tested on: U251 glioblastoma
# [57] = tested on: UACC-257 melanoma
# [58] = tested on: UACC-62 melanoma
structure (smiles),measurement,setting,value
C[C@@H]1OC(O)[C@@H](F)[C@H](O)[C@@H]1O (stereo partly specified),GI50,[1],> 100 µM
same,TGI,[1],> 100 µM
same,GI50,[2],> 100 µM
same,TGI,[2],> 100 µM
same,GI50,[3],> 100 µM
same,TGI,[3],> 100 µM
same,GI50,[4],> 100 µM
same,TGI,[4],> 100 µM
same,GI50,[5],> 100 µM
same,TGI,[5],> 100 µM
same,GI50,[6],> 100 µM
same,TGI,[6],> 100 µM
same,GI50,[7],> 100 µM
same,TGI,[7],> 100 µM
same,GI50,[8],> 100 µM
same,TGI,[8],> 100 µM
same,GI50,[9],> 100 µM
same,TGI,[9],> 100 µM
same,GI50,[10],> 100 µM
same,TGI,[10],> 100 µM
same,GI50,[11],> 100 µM
same,TGI,[11],> 100 µM
same,GI50,[12],> 100 µM
same,TGI,[12],> 100 µM
same,GI50,[13],> 100 µM
same,TGI,[13],> 100 µM
same,GI50,[14],> 100 µM
same,TGI,[14],> 100 µM
same,GI50,[15],> 100 µM
same,TGI,[15],> 100 µM
same,GI50,[16],> 100 µM
same,TGI,[16],> 100 µM
same,GI50,[17],> 100 µM
same,TGI,[17],> 100 µM
same,GI50,[18],> 100 µM
same,TGI,[18],> 100 µM
same,GI50,[19],> 100 µM
same,TGI,[19],> 100 µM
same,GI50,[20],> 100 µM
same,TGI,[20],> 100 µM
same,GI50,[21],> 100 µM
same,TGI,[21],> 100 µM
same,GI50,[22],> 100 µM
same,TGI,[22],> 100 µM
same,GI50,[23],> 100 µM
same,TGI,[23],> 100 µM
same,GI50,[24],> 100 µM
same,TGI,[24],> 100 µM
same,GI50,[25],> 100 µM
same,TGI,[25],> 100 µM
same,GI50,[26],> 100 µM
same,TGI,[26],> 100 µM
same,GI50,[27],> 100 µM
same,TGI,[27],> 100 µM
same,GI50,[28],> 100 µM
same,TGI,[28],> 100 µM
same,GI50,[29],> 100 µM
same,TGI,[29],> 100 µM
same,GI50,[30],> 100 µM
same,TGI,[30],> 100 µM
same,GI50,[31],> 100 µM
same,TGI,[31],> 100 µM
same,GI50,[32],> 100 µM
same,TGI,[32],> 100 µM
same,GI50,[33],> 100 µM
same,TGI,[33],> 100 µM
same,GI50,[34],> 100 µM
same,TGI,[34],> 100 µM
same,GI50,[35],> 100 µM
same,TGI,[35],> 100 µM
same,GI50,[36],> 100 µM
same,TGI,[36],> 100 µM
same,GI50,[37],> 100 µM
same,TGI,[37],> 100 µM
same,GI50,[38],> 100 µM
same,TGI,[38],> 100 µM
same,GI50,[39],> 100 µM
same,TGI,[39],> 100 µM
same,GI50,[40],> 100 µM
same,TGI,[40],> 100 µM
same,GI50,[41],> 100 µM
same,TGI,[41],> 100 µM
same,GI50,[42],> 100 µM
same,TGI,[42],> 100 µM
same,GI50,[43],> 100 µM
same,TGI,[43],> 100 µM
same,GI50,[44],> 100 µM
same,TGI,[44],> 100 µM
same,GI50,[45],> 100 µM
same,TGI,[45],> 100 µM
same,GI50,[46],> 100 µM
same,TGI,[46],> 100 µM
same,GI50,[47],> 100 µM
same,TGI,[47],> 100 µM
same,GI50,[48],> 100 µM
same,TGI,[48],> 100 µM
same,GI50,[49],> 100 µM
same,TGI,[49],> 100 µM
same,GI50,[50],> 100 µM
same,TGI,[50],> 100 µM
same,GI50,[51],> 100 µM
same,TGI,[51],> 100 µM
same,GI50,[52],> 100 µM
same,TGI,[52],> 100 µM
same,GI50,[53],> 100 µM
same,TGI,[53],> 100 µM
same,GI50,[54],> 100 µM
same,TGI,[54],> 100 µM
same,GI50,[55],> 100 µM
same,TGI,[55],> 100 µM
same,GI50,[56],> 100 µM
same,TGI,[56],> 100 µM
same,GI50,[57],> 100 µM
same,TGI,[57],> 100 µM
same,GI50,[58],> 100 µM
same,TGI,[58],> 100 µM

# Source: PubChem BioAssay (NCI)
